For assay [1], the target named is human GHSR1a (Homo sapiens, UniProt Q92847). The assay is described as follows: Aequorin bioluminescence functional assay (intracellular calcium mobilization) in 293AEQ17/GHSR1a cells. The assay is classed as cell-based. The note with it: for activation at 10 µM: read-out: Functional Assay % activation at 10 μM relative to ghrelin; for EC50: aequorin bioluminescence, HEK-293 cells expressing hGHSR1a, three separate assays. (In general: A change in cytosolic calcium serves as a functional read-out for many receptors and channels.)
Procedure: A stable cell line expressing the human GHSR1a and the aequorin reporter protein were used for the assay.
The assay was performed using a Luminoskan RT luminometer (Labsystems Inc., Gaithersburg, Md.) controlled by custom software written for a Macintosh PowerPC 6100. […] The cells were harvested, washed once in ECB medium and resuspended to 500,000 cells/ml. 100 ml of cell suspension (corresponding to 5×10^4 cells) was then injected into the test plate containing the peptides, and the integrated light emission was recorded over 30 seconds, in 0.5 second units. 20 μL of lysis buffer (0.1% final Triton X-100 concentration) was then injected and the integrated light emission recorded over 10 seconds, in 0.5 second units. The “fractional response” values for each well were calculated by taking the ratio of the integrated response to the initial challenge to the total integrated luminescence including the Triton X-100 lysis response. The functional EC50 values were measured in three separate assays.

In assay [2] the target is human GHS receptor 1a (Homo sapiens, UniProt Q92847). The assay is described as follows: Competitive binding assay with [35S]-MK-677 on membranes of HEK 293-aequorin cells transfected with human GHS receptor. Conditions: competition with 0.05 nM [35S]-MK-677; three separate assays in triplicate.
Procedure: Prior to the binding assay, the HEK 293-AEQ17 cells (8×10^5 cells plated 18 hours before transfection in a T75 flask) were transfected with 22 μg of human GHS receptor plasmid using 264 μg lipofectamine. The open reading frame cDNA (SEQ. ID. NO. 22) encoding the human GHS receptor inserted in the mammalian expression vector pcDNA-3 (Invitrogen, Carlsbad, Calif.) was used for binding and expression studies.
For a 96-well filter binding assay, 0.05 nM [^35S]-NM-677 (specific activity ˜1200 Ci/mmol) was bound to 4 μg membrane protein per well with or without competing test ligand. The bound membranes were filtered on 0.5% polyethylenimine prewet filters (UniFilter 96 GF/C; Packard #6005174, Meriden, Conn.). Filters were washed 8 times, dried, and counted with Microscint 20 (Packard #6013621, Meriden, Conn.). IC50 values were determined from three separate assays performed in triplicate.
For assay [3], the system named is somatotrops. The note with it: several species including man; cited from earlier work.

Where two headings read alike, the source gives them in different places. Where a SMILES comes first, the peptide text is derived from it. Where no end group is shown, it is not given here. [ ]: non-standard residue; d: D form. The star is where a group is joined. Octanoyl = CCCCCCCC(=O)*

Sequence of human GHSR1a (Q92847 whole entry): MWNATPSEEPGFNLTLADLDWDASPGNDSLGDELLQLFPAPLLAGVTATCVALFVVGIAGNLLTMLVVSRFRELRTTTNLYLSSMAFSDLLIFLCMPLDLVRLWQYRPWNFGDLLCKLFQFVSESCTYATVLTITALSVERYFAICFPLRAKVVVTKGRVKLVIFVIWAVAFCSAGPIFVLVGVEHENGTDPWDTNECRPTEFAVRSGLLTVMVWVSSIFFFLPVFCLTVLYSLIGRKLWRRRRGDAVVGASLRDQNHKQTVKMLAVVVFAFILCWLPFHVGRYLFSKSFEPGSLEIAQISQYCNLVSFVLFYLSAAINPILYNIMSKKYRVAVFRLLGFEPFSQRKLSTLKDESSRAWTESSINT
Sequence of human GHS receptor 1a (Q92847 whole entry): as above

Turning to `CCCCCCCC(=O)NC[C@H](NC(=O)[C@H](CO)NC(=O)CN)C(=O)N[C@@H](Cc1ccccc1)C(=O)N[C@@H](CC(C)C)C(=O)N[C@@H](CO)C(=O)N1CCC[C@H]1C(=O)N[C@@H](CCC(=O)O)C(=O)N[C@@H](Cc1c[nH]cn1)C(=O)N[C@@H](CCC(N)=O)C(=O)N[C@@H](CCCNC(=N)N)C(=O)N[C@H](C(=O)N[C@@H](CCC(N)=O)C(=O)N[C@@H](CCC(N)=O)C(=O)N[C@@H](CCCNC(=N)N)C(=O)N[C@@H](CCCCN)C(=O)N[C@@H](CCC(=O)O)C(=O)N[C@@H](CO)C(=O)N[C@@H](CCCCN)C(=O)N[C@@H](CCCCN)C(=O)N1CCC[C@H]1C(=O)N1CCC[C@H]1C(=O)N[C@@H](C)C(=O)N[C@@H](CCCCN)C(=O)N[C@@H](CC(C)C)C(=O)N[C@@H](CCC(N)=O)C(=O)N1CCC[C@H]1C(=O)N[C@@H](CCCNC(=N)N)C(=O)O)C(C)C` [Compound 12], the activation at 10 µM in assay [1] (at 10 μM, relative to ghrelin) was determined as 105 ± 5%. Turning to `CCCCCCCC(=O)OC[C@H](NC(=O)[C@H](CO)NC(=O)CN)C(=O)N[C@@H](Cc1ccccc1)C(=O)N[C@@H](CC(C)C)C(=O)N[C@@H](CO)C(=O)N1CCC[C@H]1C(=O)N[C@@H](CCC(=O)O)C(=O)N[C@@H](Cc1c[nH]cn1)C(=O)N[C@@H](CCC(N)=O)C(=O)N[C@@H](CCCNC(=N)N)C(=O)N[C@H](C(=O)N[C@@H](CCC(N)=O)C(=O)N[C@@H](CCC(N)=O)C(N)=O)C(C)C` [Compound 13, GSXFLSPEHQRVQQ], the activation at 10 µM in assay [1] (at 10 μM, relative to ghrelin) stood at 97 ± 9%. Consider `CCCCCCCC(=O)NC[C@H](NC(=O)[C@H](CO)NC(=O)CN)C(=O)N[C@@H](Cc1ccccc1)C(=O)N[C@@H](CC(C)C)C(=O)N[C@@H](CO)C(=O)N1CCC[C@H]1C(=O)N[C@@H](CCC(=O)O)C(=O)N[C@@H](Cc1c[nH]cn1)C(=O)N[C@@H](CCC(N)=O)C(=O)N[C@@H](CCCNC(=N)N)C(=O)N[C@H](C(=O)N[C@@H](CCC(N)=O)C(=O)N[C@@H](CCC(N)=O)C(=O)O)C(C)C` [Compound 14], for which the activation at 10 µM in assay [1] (at 10 μM, relative to ghrelin) came to 102 ± 3%.

Turning to `CCCCCCCC(=O)OC[C@H](NC(=O)[C@H](CO)NC(=O)CN)C(=O)N[C@@H](Cc1ccccc1)C(=O)N[C@@H](CC(C)C)C(=O)N[C@@H](CO)C(=O)N1CCC[C@H]1C(=O)N[C@@H](CCC(=O)O)C(=O)N[C@@H](Cc1c[nH]cn1)C(=O)N[C@@H](CCC(N)=O)C(=O)N[C@@H](CCCNC(=N)N)C(=O)N[C@H](C(=O)N[C@@H](CCC(N)=O)C(=O)N[C@@H](CCC(N)=O)C(=O)N[C@@H](CCCNC(=N)N)C(=O)N[C@@H](CCCCN)C(=O)N[C@@H](CCC(=O)O)C(=O)N[C@@H](CO)C(=O)N[C@@H](CCCCN)C(=O)N[C@@H](CCCCN)C(=O)N1CCC[C@H]1C(=O)N1CCC[C@H]1C(=O)N[C@@H](C)C(N)=O)C(C)C` [Compound 18, GSXFLSPEHQRVQQRKESKKPPA-NH2] (H-GSS(Octanoyl)FLSPEHQRVQQRKESKKPPA-NH2), in assay [1] (at 10 μM, relative to ghrelin), the activation at 10 µM was determined as 100 ± 4%.

For the compound `CCCCCCCC(=O)OC[C@H](NC(=O)[C@H](CO)NC(=O)CN)C(=O)N[C@@H](Cc1ccccc1)C(=O)N[C@@H](CC(C)C)C(=O)N[C@@H](CO)C(=O)N1CCC[C@H]1C(=O)N[C@@H](CCC(=O)O)C(=O)N[C@@H](Cc1c[nH]cn1)C(=O)N[C@@H](CCC(N)=O)C(=O)N[C@@H](CCCNC(=N)N)C(=O)N[C@H](C(=O)N[C@@H](CCC(N)=O)C(=O)N[C@@H](CCC(N)=O)C(=O)N[C@@H](CCCNC(=N)N)C(=O)N[C@@H](CCCCN)C(=O)N[C@@H](CCC(=O)O)C(=O)N[C@@H](CO)C(N)=O)C(C)C` [Compound 19, GSXFLSPEHQRVQQRKES-NH2] (H-GSS(Octanoyl)FLSPEHQRVQQRKES-NH2; N-terminus assumed), the activation at 10 µM in assay [1] (at 10 μM, relative to ghrelin) was 92 ± 16%. The same measure, in the same setting: for `CCCCCCCC(=O)OC[C@H](NC(=O)[C@H](CO)NC(=O)CN)C(=O)N[C@@H](Cc1ccccc1)C(=O)N[C@@H](CC(C)C)C(N)=O` [Compound 21, GSXFL-NH2] (H-GSS(Octanoyl)FL-NH2) the value was 96 ± 7%. One may read the IC50 as the concentration needed to halve the response being measured. Usually EC50 stands for the midpoint of the concentration-response curve. On to `CCCCCCCC(=O)OC[C@H](NC(=O)[C@H](CO)NC(=O)CN)C(=O)N[C@@H](Cc1ccccc1)C(N)=O` [Compound 22, GSXF-NH2] (H-GSS(Octanoyl)F-NH2), for which, in assay [2], the IC50 was 0.889 ± 0.072 µM. The half-maximal effective concentration (EC50) in assay [1] stood at 0.072 ± 0.029 µM. Moreover, the activation at 10 µM in assay [1] (at 10 μM, relative to ghrelin) is 91 ± 4%. For the compound `CCCCCCCC(=O)OC[C@H](NC(=O)[C@H](CO)NC(C)=O)C(=O)N[C@@H](Cc1ccccc1)C(=O)N[C@@H](CC(C)C)C(N)=O` [Compound 23, Ac-SXFL-NH2] (Ac-SS(Octanoyl)FL-NH2), the concentration for a half-maximal effect (EC50) in assay [1] came out at 1.15 ± 0.12 µM. Besides, the activation at 10 µM in assay [1] (at 10 μM, relative to ghrelin) stood at 30 ± 5%. With `CCCCCCCC(=O)OC[C@H](NC(=O)[C@H](CO)NC(=O)CN)C(N)=O` [Compound 24, GSX-NH2] (H-Gly-Ser-Ser(Octanoyl)-NH2), the activation at 10 µM in assay [1] was determined as 28 ± 1%. As to `CCCCCCCC(=O)OC[C@H](NC(C)=O)C(=O)N[C@@H](Cc1ccccc1)C(=O)N[C@@H](CC(C)C)C(N)=O` [Compound 25, Ac-XFL-NH2] (Ac-Ser(Octanoyl)-Phe-Leu-NH2), in assay [1], the EC50 turned out to be 2.5 ± 1.2 µM and the activation at 10 µM was determined as 29 ± 7%. As to `CCCCCCCC(=O)OC[C@H](NC(=O)[C@H](CO)NC(C)=O)C(=O)N[C@@H](Cc1ccccc1)C(N)=O` [Compound 26, Ac-SXF-NH2] (Ac-Ser-Ser(Octanoyl)-Phe-NH2), the activation at 10 µM in assay [1] (at 10 μM, relative to ghrelin) is 28 ± 1%. Take H[dW]AW[dF]K-NH2 [GHRP-6]: the “growth hormone release from somatotrops, result in words” value in assay [3] was “release growth hormone from somatotrops in a dose-dependent manner”.

The values are drawn from patent US6967237B2, “Ghrelin analogs” (priority 2000, dated 2005).
